In one experiment the target is FOXO4 FHD (Homo sapiens, UniProt P98177). Nature of the experiment: FPA competition assay. Type of experiment: binding. The settings on record: FPA competition analysis.
In the next experiment the test system is A375 cells. The experiment is described as follows: MTS cell viability assay, dividing vs cisplatin. Type of experiment: cell-based, Human. The settings on record: dividing vs CDDP (4 µM)-induced senescent A375 cells.
Experiment [1] relates to FOXO4 foci in senescent A375 cells. Nature of the experiment: Immunofluorescence of FOXO4 foci in nuclei of senescent A375 cells. Type of experiment: cell-based, Human. The settings on record: doxorubicin-induced senescent A375 cells; 30 μM CPP-CAND, 24 h; vs DMSO mock.
For the next experiment, the system named is caspase 3/7. Nature of the experiment: Caspase 3/7 activity. Type of experiment: cell-based, Human. The settings on record: senescent A375 cells; 20 μM, 24 h.

The source of these data is publication doi:10.1101/2024.09.04.610228v1 (bioRxiv, 2024).

Peptide text beside a SMILES is read from it.

Sequence of FOXO4 FHD (P98177 95-195): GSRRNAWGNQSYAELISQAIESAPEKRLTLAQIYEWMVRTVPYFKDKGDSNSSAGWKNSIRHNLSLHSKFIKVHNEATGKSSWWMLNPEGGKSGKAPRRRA

For `CC[C@H](C)[C@H](NC(=O)[C@H](C)NC(=O)[C@H](C)NC(=O)[C@@H]1CCCN1C(=O)[C@H](CO)NC(=O)[C@H](CC(C)C)NC(=O)[C@H](CCSC)NC(=O)[C@H](CC(C)C)NC(=O)[C@H](C)N)C(=O)N[C@@H](C)C(=O)N[C@@H](CCC(N)=O)C(=O)N[C@@H](Cc1c[nH]c2ccccc12)C(=O)N[C@@H](Cc1ccccc1)C(=O)N[C@H](C(=O)N[C@@H](C)C(=O)N[C@@H](C)C(=O)O)[C@@H](C)O` [CAND] (H-ALMLSPAAIAQWFTAA-OH; N-terminus and C-terminus assumed), the “Enhancement of inhibitory ability compared to p53 TAD PEP” value at FOXO4 FHD is on record as “approximately three-fold”.
Take `CC[C@H](C)[C@H](NC(=O)[C@H](C)NC(=O)[C@H](C)NC(=O)[C@@H]1CCCN1C(=O)[C@H](CO)NC(=O)[C@H](CC(C)C)NC(=O)[C@H](CCSC)NC(=O)[C@H](CC(C)C)NC(=O)[C@H](C)NC(=O)[C@@H]1CCCN1C(=O)[C@@H]1CCCN1C(=O)[C@H](CCCNC(=N)N)NC(=O)[C@H](CCCNC(=N)N)NC(=O)[C@H](CCCNC(=N)N)NC(=O)[C@H](CCC(N)=O)NC(=O)[C@H](CCCNC(=N)N)NC(=O)[C@H](CCCNC(=N)N)NC(=O)[C@H](CCCCN)NC(=O)[C@H](CCCCN)NC(=O)[C@H](CCCNC(=N)N)NC(=O)CN)C(=O)N[C@@H](C)C(=O)N[C@@H](CCC(N)=O)C(=O)N[C@@H](Cc1c[nH]c2ccccc12)C(=O)N[C@@H](Cc1ccccc1)C(=O)N[C@H](C(=O)N[C@@H](C)C(=O)N[C@@H](C)C(=O)O)[C@@H](C)O` [CPP-CAND] (H-GRKKRRQRRRPPALMLSPAAIAQWFTAA-OH; N-terminus and C-terminus assumed): the “SI75 (selectivity index from IC75 values)” value with A375 cells is “approximately 2.4”. In addition, the “Reduction in number of FOXO4 foci in nuclei” value in experiment [1] is on record as “approximately 7.1 fold”. Further, the “Caspase 3/7 activity (percentage of green fluorescent cells), senescent cells” value in the experiment on caspase 3/7 amounted to 44%.
